Data from patent publication US20260042764A1, “COMPOSITIONS AND METHODS FOR INHIBITION OF KRAS” (TheRas, Inc., priority 2022, published 2026).
pIC50: −log10 of the molar value. Read-outs that look alike come from different tables or passages of the source.

Columns and labels:
HPAC cells (KRAS G12D) = test: Cell-based pERK HTRF assay in HPAC cells (Biological Example 5)
Description: (§1) Biological Example 5: Cell-based PERK HTRF assay in AsPC-1, SW1900, HPAC, Capan-2, RKN, H358, HCT116, KP-2, H1573, A549, MKN1, and HT1080 cells
(§2) The inhibition of ERK phosphorylation, as measured using the HTRF Advanced Phospho-ERK 1/2 (Thr202/Tyr204) Detection Assay kit (Perkin Elmer), was used to determine the effectiveness of test compounds in disrupting KRAS-driven protein/effector signaling in cells.
(§3) On day 1, cells were seeded into 96-well plates at 2.5×10^4 cells/well in 100 μL of complete growth media supplemented with 10% fetal bovine serum (FBS) and incubated at 37° C., in the presence of 5% CO2.
(§4) On day 2, cells were treated with compounds diluted in DMSO at 0.25% final DMSO concentration. Compounds were dosed in a 9-point concentration curve with three-fold dilution between concentrations. Cells were incubated in the presence of compound for two hours at 37° C. Following this treatment period, cells were harvested by aspirating the media, adding 40 μL of kit-supplied 1x lysis buffer per well, and shaking for 30 minutes at 250 rpm at room temperature.
(§5) Following cell lysis, samples were homogenized by pipetting up and down twenty times and 16 μL of cell lysate per well was transferred from the 96-well cell culture plate to two wells of a 384-well detection plate. A complete detection buffer was prepared by diluting D2 and Eu Cryptate antibodies 1:20 in kit-provided detection solution, 4 μL of complete detection buffer was then added to each well with lysate. Plates were incubated with gentle rocking for 24 hours at 4° C.
(§6) Following this incubation period, plates were centrifuged at 500×g for one minute and analyzed on a CLARIOstar plate reader. Data was imported into Microsoft Excel and the signal from the 665 nm channel was divided by the signal from the 620 nm channel. % pERK was calculated as: […]
(§7) Data was imported to the Prism software package (Graphpad) and EC50 values were calculated using the log (inhibitor) vs, response—variable slopc (Four parameters) model.

[1] = test system: MKN1 cells (KRAS amplification); test: 3D Cell viability assay in MKN1 cells (Biological Example 6); assay type: cell-based; settings: MKN (MKN1, KRAS amplification) spheroids, 72 hours
Description: (§8) Biological Example 6: 3D Cell viability assay in AsPC-1, SW1900, HPAC, Capan-2, RKN, H358, HCT116, KP-2, H1573, A549, MKN1, and HT1080 cells
(§9) The inhibition of cellular viability as a result of test compound treatment in a spheroid assay was measured using the CellTiter-Glow 3D Cell Viability Assay (Promega).
(§10) On Day 1, 1000 cells per well were seeded in 150 μL of complete growth media supplemented with 10% fetal bovine serum (FBS) and incubated at 37° C., in the presence of 5% CO2 in 96-well ultra-low attachment microplates (Corning) for 48 hours undisturbed to allow spheroids to form.
(§11) Following spheroid formation, cells were treated with compounds diluted in DMSO at 0.25% final DMSO concentration. Compounds were dosed in a 9-point concentration curve with three-fold dilution between concentrations. Cells were incubated in the presence of compound for 72 hours at 37° C., in the presence of 5% CO2.
(§12) Following this incubation period, the kit-provided CTG reagent was allowed to equilibrate for 30 minutes at room temperature, 150 μL of equilibrated CTG reagent was added to each well, and the plate was sealed before shaking at 250 rpm for 10 minutes at room temperature to lyse the cells, 150 μL of lysate per well was transferred to a 96-well plate and luminescence was read on a CLARIOstar plate reader.
(§13) Data was imported into the Prism software package (Graphpad) and EC50 values were calculated using the log (inhibitor) vs, response—variable slope (Four parameters) model.

H358 cells (KRAS G12C) [2] = test: Cell-based pERK HTRF assay in H358 cells (Biological Example 5)
Description: as §1, §2, §3, §4, §5, §6, §7

AsPC-1 cells (KRAS G12D) = test: 3D Cell viability assay in AsPC-1 cells (Biological Example 6); assay type: cell-based; settings: AsPC-1 (KRAS G12D) spheroids, 72 hours
Description: as §8, §9, §10, §11, §12, §13

H358 cells (KRAS G12C) [3] = test: 3D Cell viability assay in H358 cells (Biological Example 6); assay type: cell-based; settings: H358 (KRAS G12C) spheroids, 72 hours
Description: as §8, §9, §10, §11, §12, §13

[4] = molecular target: T1, Avi-KRAS G12C (2-169) GTP/RAF1 RBD-3xFLAG (51-131) (Homo sapiens, UniProt P01116, G12C); test: Raf1-KRAS G12C-GTP disruption HTRF assay (Biological Example 3); assay type: binding; settings: KRAS G12C, GTP-loaded
T1 construct: Avi-KRAS G12C (2-169)
Summary of the method: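 50 nM Avi-KRAS (2-169) GTP/RAF1 RBD complex; 75 nM RBD-Avi; pH 7.5 Tris buffer, 10% DMSO; cpd 30 μM top, 3x, 10 pts; 1 h RT, 700 rpm; HTRF, % of DMSO.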

[5] = Homo sapiens, NCI-H358, H358 (KRAS G12C) cells

T1 sequence (P01116 2-169 isoform P01116-2 G12C): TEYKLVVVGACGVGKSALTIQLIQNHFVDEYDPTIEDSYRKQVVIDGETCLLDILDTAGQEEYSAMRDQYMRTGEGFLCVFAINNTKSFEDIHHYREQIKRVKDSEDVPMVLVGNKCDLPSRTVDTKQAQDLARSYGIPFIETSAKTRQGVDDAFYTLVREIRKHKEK

| Structure (SMILES) | pIC50 (HPAC cells (KRAS G12D); Homo sapiens, HPAC) | pIC50 ([1]; Homo sapiens, MKN-1) | pIC50 (H358 cells (KRAS G12C) [2]; [5]) | pIC50 (AsPC-1 cells (KRAS G12D); Homo sapiens, ASPC1) | pIC50 (H358 cells (KRAS G12C) [3]; Homo sapiens, NCI-H358) | pIC50 [4] | pIC50 (HPAC cells (KRAS G12D)) | pIC50 [1] | pIC50 (H358 cells (KRAS G12C) [2]; H358 (KRAS G12C) cells) | pIC50 (H358 cells (KRAS G12C) [3]) | pIC50 (AsPC-1 cells (KRAS G12D)) |
| --- | --- | --- | --- | --- | --- | --- | --- | --- | --- | --- | --- |
| CCN(c1nc(OC[C@@]23CCCN2C[C@H](F)C3)nc2c(F)c(-c3ccc(F)c4sc(N)c(C#N)c34)c(C(F)(F)F)cc12)[C@H]1CCN(C(=O)C2CC2)[C@@H]1C (atropisomer, axis not shown) [Compound 579] | < 6.00 | ≥ 7.00 | ≥ 7.00 | ≥ 7.00 | ≥ 7.00 | – | – | – | – | – | – |
| CCN(c1nc(OC[C@@]23CCCN2C[C@H](F)C3)nc2c(F)c(-c3ccc(F)c4sc(N)c(C#N)c34)c(C(F)(F)F)cc12)[C@H]1CCN(C(=O)c2ncco2)C1 (atropisomer, axis not shown) [Compound 584] | 6.00 to 7.00 | ≥ 7.00 | ≥ 7.00 | ≥ 7.00 | ≥ 7.00 | – | – | – | – | – | – |
| CCN(c1nc(OC[C@@]23CCCN2C[C@H](F)C3)nc2c(F)c(-c3ccc(F)c4sc(N)c(C#N)c34)c(C(F)(F)F)cc12)[C@H]1C[C@@H](C)N(C(=O)C2COC2)C1 (atropisomer, axis not shown) [Compound 586] | 6.00 to 7.00 | ≥ 7.00 | ≥ 7.00 | ≥ 7.00 | ≥ 7.00 | – | – | – | – | – | – |
| CCN(c1nc(OC[C@@]23CCCN2C[C@H](F)C3)nc2c(F)c(-c3ccc(F)c4sc(N)c(C#N)c34)c(C(F)(F)F)cc12)[C@H]1C[C@H](COC)N(C(=O)C2CC2)C1 (atropisomer, axis not shown) [Compound 696] | – | ≥ 7.00 | ≥ 7.00 | ≥ 7.00 | ≥ 7.00 | 6.00 to 7.00 | – | – | – | – | – |
| CCN(c1nc(OC[C@@]23CCCN2C[C@H](F)C3)nc2c(F)c(-c3ccc(F)c4sc(N)c(C#N)c34)c(C(F)(F)F)cc12)[C@H]1C[C@H](C)N(C(=O)OC)C1 (atropisomer, axis not shown) [Compound 704] | – | ≥ 7.00 | ≥ 7.00 | ≥ 7.00 | ≥ 7.00 | 6.00 to 7.00 | – | – | – | – | – |
| CCN(c1nc(OC[C@@]23CCCN2C[C@H](F)C3)nc2c(F)c(-c3ccc(F)c4sc(N)c(C#N)c34)c(C(F)(F)F)cc12)[C@H]1C[C@H](C)N(C(=O)[C@@H]2CC2(F)F)C1 (atropisomer, axis not shown) [Compound 751] | ≥ 7.00 | ≥ 7.00 | ≥ 7.00 | ≥ 7.00 | ≥ 7.00 | – | – | – | – | – | – |
| CC(=O)N1CC[C@@H](N(C)c2nc(OC[C@@]34CCCN3C[C@H](F)C4)nc3c(F)c(-c4ccc(F)c5sc(N)c(C#N)c45)c(C(F)(F)F)cc23)[C@H]1C (single isomer, unassigned) [Compound 193] | ≥ 7.00 | ≥ 7.00 | ≥ 7.00 | – | ≥ 7.00 | – | – | – | – | – | – |
| N#Cc1c(N)sc2c(F)ccc(-c3c(C(F)(F)F)cc4c(N5CCOCC5)nc(OC[C@@]56CCCN5C[C@H](F)C6)nc4c3F)c12 (single isomer, unassigned) [Compound 198] | 6.00 to 7.00 | ≥ 7.00 | ≥ 7.00 | – | ≥ 7.00 | – | – | – | – | – | – |
| CN(c1nc(OC[C@@]23CCCN2C[C@H](F)C3)nc2c(F)c(-c3ccc(F)c4sc(N)c(C#N)c34)c(C(F)(F)F)cc12)[C@H]1C[C@@H](O)C1 [Compound 19, 2-amino-7-fluoro-4-((S)-8-fluoro-2-(((2R,7aS)-2-fluorotetrahydro-1H-pyrrolizin-7a(5H)-yl)methoxy)-4-(((1s,3R)-3-hydroxycyclobutyl)(methyl)amino)-6-(trifluoromethyl)quinazolin-7-yl)benzo[b]thiophene-3-carbonitrile] | – | – | – | – | – | – | ≥ 7.00 | ≥ 7.00 | ≥ 7.00 | ≥ 7.00 | – |
| N#Cc1c(N)sc2c(F)ccc(-c3c(C(F)(F)F)cc4c(N5CC6CC5CO6)nc(OC[C@@]56CCCN5C[C@H](F)C6)nc4c3F)c12 (some centres unmarked) [Compound 147] | – | – | – | – | ≥ 7.00 | – | – | – | – | – | – |
| N#Cc1c(N)sc2c(F)ccc(-c3c(C(F)(F)F)cc4c(N5CCCOCC5)nc(OC[C@@]56CCCN5C[C@H](F)C6)nc4c3F)c12 [Compound 232] | ≥ 7.00 | – | ≥ 7.00 | – | ≥ 7.00 | – | – | – | – | – | – |
| N#Cc1c(N)sc2c(F)ccc(-c3c(C(F)(F)F)cc4c(N5CCC[C@@H](O)C5)nc(OC[C@@]56CCCN5C[C@H](F)C6)nc4c3F)c12 [Compound 234] | 6.00 to 7.00 | – | ≥ 7.00 | – | ≥ 7.00 | – | – | – | – | – | – |
| C[C@@H]1[C@H](N(C)c2nc(OC[C@@]34CCCN3C[C@H](F)C4)nc3c(F)c(-c4ccc(F)c5sc(N)c(C#N)c45)c(C(F)(F)F)cc23)CCN1C(=O)C1CC1 [Compound 258] | < 6.00 | – | ≥ 7.00 | – | ≥ 7.00 | – | – | – | – | – | – |
| CCC(=O)N1CC[C@@H](N(C)c2nc(OC[C@@]34CCCN3C[C@H](F)C4)nc3c(F)c(-c4ccc(F)c5sc(N)c(C#N)c45)c(C(F)(F)F)cc23)[C@H]1C [Compound 260] | 6.00 to 7.00 | – | ≥ 7.00 | – | ≥ 7.00 | – | – | – | – | – | – |
| CCN(c1nc(OC[C@@]23CCCN2C[C@H](F)C3)nc2c(F)c(-c3ccc(F)c4sc(N)c(C#N)c34)c(Cl)cc12)[C@@H]1CCN(C(C)=O)[C@@H]1C [Compound 323] | ≥ 7.00 | ≥ 7.00 | ≥ 7.00 | – | ≥ 7.00 | – | – | – | – | – | – |
| CCN(c1nc(OC[C@@]23CCCN2C[C@H](F)C3)nc2c(F)c(-c3ccc(F)c4sc(N)c(C#N)c34)c(Cl)cc12)[C@@H]1CCN(C(=O)C2CC2)[C@@H]1C [Compound 337] | ≥ 7.00 | ≥ 7.00 | ≥ 7.00 | – | ≥ 7.00 | – | – | – | – | – | – |
| CC(=O)N1CC[C@@H](N(C)c2nc(OC[C@@]34CCCN3C[C@H](F)C4)nc3c(F)c(-c4ccc(F)c5sc(N)c(C#N)c45)c(Cl)cc23)[C@H]1C [Compound 398] | 6.00 to 7.00 | ≥ 7.00 | ≥ 7.00 | – | ≥ 7.00 | – | – | – | – | – | – |
| CCN(c1nc(OCC23CCCN2CC(F)C3)nc2c(F)c(-c3ccc(F)c4sc(N)c(C#N)c34)c(C(F)(F)F)cc12)C1CC(C)N(C(=O)N2CC(F)C2)C1 (centres unmarked) [Compound 759] | – | – | – | – | – | – | – | ≥ 7.00 | ≥ 7.00 | ≥ 7.00 | ≥ 7.00 |
